The assay concerns the target Mucolipin-3 (Homo sapiens) (UniProt Q8TDD5). Nature of the assay: TRPML3 and TRPML2 channel agonists, cell-based, patch clamp, Fura-2 profiling panel (AID 2116). The note with it: HEK293 cells expressing TRPML3-YFP, TRPML3 Dose Response.

Molecules are shown by their SMILES.

Mucolipin-3 (Homo sapiens), sequence (Q8TDD5 whole entry, looked up): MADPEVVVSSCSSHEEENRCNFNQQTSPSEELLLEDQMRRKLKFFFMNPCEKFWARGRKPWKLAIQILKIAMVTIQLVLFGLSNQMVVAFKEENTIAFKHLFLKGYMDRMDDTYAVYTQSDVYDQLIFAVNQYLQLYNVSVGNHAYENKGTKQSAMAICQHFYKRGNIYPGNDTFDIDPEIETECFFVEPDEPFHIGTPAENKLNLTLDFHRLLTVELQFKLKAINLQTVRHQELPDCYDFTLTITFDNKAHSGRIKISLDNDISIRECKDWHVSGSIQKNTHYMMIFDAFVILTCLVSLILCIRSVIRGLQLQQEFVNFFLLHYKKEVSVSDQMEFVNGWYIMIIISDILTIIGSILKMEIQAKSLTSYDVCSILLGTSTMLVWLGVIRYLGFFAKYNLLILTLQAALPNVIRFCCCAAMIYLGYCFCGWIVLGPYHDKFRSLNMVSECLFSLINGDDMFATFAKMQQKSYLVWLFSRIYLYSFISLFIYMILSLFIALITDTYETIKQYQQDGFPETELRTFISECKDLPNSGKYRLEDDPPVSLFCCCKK

For `O=S(=O)(Nc1ccccc1N1CCOCC1)c1ccc(Cl)s1`, the EC50 (usually the concentration that produces a half-maximal response) was 1090 nM.
With `O=S(=O)(NC1CCCCC1N1CCOCC1)c1ccc(Cl)cc1` (configuration not stated) the figure was 450 nM.
